Experiments:
Assay in all cases: Kinobeads competition binding with immobilized CZC25342, mixed HeLa placenta lysates (Example 5, Table 7)
[1] = target: T1, kinases from mixed HeLa placenta lysates (Homo sapiens, UniProt O75716); settings: kinase MPSK1; 10 μM free compound; HeLa Placenta lysate mix
T1 construct: capturing and identification of kinases from mixed HeLa placenta lysates; endogenous in cells; host or cells: mixed lysate of HeLa cells and placenta tissue
Procedure: (§1) To one aliquot of cell lysate 10 μM of the free compound (FIG. 2, CZC25342) was added and allowed to bind to proteins in the lysate. Then the affinity matrix with the immobilized compound was added to capture proteins that were not interacting with the previously added free compound. Beads were separated from the lysate and bead bound proteins were eluted in SDS sample buffer and subsequently separated by SDS-Polyacrylamide gel electrophoresis (FIG. 11). Suitable gel bands were cut out and subjected to in-gel proteolytic digestion with trypsin. The second lysate aliquot was processed identically, however no free compound was added (DMSO solvent control). Peptides originating from samples 1 and 2 were labeled with iTRAQ reagents (iTRAQ 114 and iTRAQ 117) and the combined samples were analyzed with a nano-flow liquid chromatography system coupled online to a tandem mass spectrometer (LC-MS/MS) experiment followed by iTRAQ reporter ion quantification in the MS/MS spectra as described in Example 2. The identified kinases are shown in Table 7 including the percent competition values for the sample to which 10 μM free compound had been added. In total of 83 different kinases were identified and competed by different degrees.

[2] = target: T2, kinases from mixed HeLa placenta lysates (Homo sapiens, UniProt P35968); settings: kinase KDR; 10 μM free compound; HeLa Placenta lysate mix
T2 construct: capturing and identification of kinases from mixed HeLa placenta lysates; endogenous in cells; host or cells: mixed lysate of HeLa cells and placenta tissue
Procedure: as §1

[3] = target: T3, kinases from mixed HeLa placenta lysates (Homo sapiens, UniProt P43405); settings: kinase SYK; 10 μM free compound; HeLa Placenta lysate mix
T3 construct: capturing and identification of kinases from mixed HeLa placenta lysates; endogenous in cells; host or cells: mixed lysate of HeLa cells and placenta tissue
Procedure: as §1

[4] = target: T4, kinases from mixed HeLa placenta lysates (Homo sapiens, UniProt P78356); settings: kinase PIP5K2B; 10 μM free compound; HeLa Placenta lysate mix
T4 construct: capturing and identification of kinases from mixed HeLa placenta lysates; endogenous in cells; host or cells: mixed lysate of HeLa cells and placenta tissue
Procedure: as §1

[5] = target: T5, kinases from mixed HeLa placenta lysates (Homo sapiens, UniProt P15735); settings: kinase PHKg2; 10 μM free compound; HeLa Placenta lysate mix
T5 construct: capturing and identification of kinases from mixed HeLa placenta lysates; endogenous in cells; host or cells: mixed lysate of HeLa cells and placenta tissue
Procedure: as §1

[6] = target: T6, kinases from mixed HeLa placenta lysates (Homo sapiens, UniProt P30291); settings: kinase Wee1; 10 μM free compound; HeLa Placenta lysate mix
T6 construct: capturing and identification of kinases from mixed HeLa placenta lysates; endogenous in cells; host or cells: mixed lysate of HeLa cells and placenta tissue
Procedure: as §1

[7] = target: T7, kinases from mixed HeLa placenta lysates (Homo sapiens, UniProt Q5TCX8); settings: kinase MLK4; 10 μM free compound; HeLa Placenta lysate mix
T7 construct: capturing and identification of kinases from mixed HeLa placenta lysates; endogenous in cells; host or cells: mixed lysate of HeLa cells and placenta tissue
Procedure: as §1

[8] = target: T8, kinases from mixed HeLa placenta lysates (Homo sapiens, UniProt Q08345); settings: kinase DDR1; 10 μM free compound; HeLa Placenta lysate mix
T8 construct: capturing and identification of kinases from mixed HeLa placenta lysates; endogenous in cells; host or cells: mixed lysate of HeLa cells and placenta tissue
Procedure: as §1

[9] = target: T9, kinases from mixed HeLa placenta lysates (Homo sapiens, UniProt P16591); settings: kinase FER; 10 μM free compound; HeLa Placenta lysate mix
T9 construct: capturing and identification of kinases from mixed HeLa placenta lysates; endogenous in cells; host or cells: mixed lysate of HeLa cells and placenta tissue
Procedure: as §1

[10] = target: T10, kinases from mixed HeLa placenta lysates (Homo sapiens, UniProt P06493); settings: kinase CDC2; 10 μM free compound; HeLa Placenta lysate mix
T10 construct: capturing and identification of kinases from mixed HeLa placenta lysates; endogenous in cells; host or cells: mixed lysate of HeLa cells and placenta tissue
Procedure: as §1

[11] = target: T11, kinases from mixed HeLa placenta lysates (Homo sapiens, UniProt Q99683); settings: kinase MAP3K5; 10 μM free compound; HeLa Placenta lysate mix
T11 construct: capturing and identification of kinases from mixed HeLa placenta lysates; endogenous in cells; host or cells: mixed lysate of HeLa cells and placenta tissue
Procedure: as §1

[12] = target: T12, kinases from mixed HeLa placenta lysates (Homo sapiens, UniProt Q05397); settings: kinase FAK; 10 μM free compound; HeLa Placenta lysate mix
T12 construct: capturing and identification of kinases from mixed HeLa placenta lysates; endogenous in cells; host or cells: mixed lysate of HeLa cells and placenta tissue
Procedure: as §1

[13] = target: T13, kinases from mixed HeLa placenta lysates (Homo sapiens, UniProt O14976); settings: kinase GAK; 10 μM free compound; HeLa Placenta lysate mix
T13 construct: capturing and identification of kinases from mixed HeLa placenta lysates; endogenous in cells; host or cells: mixed lysate of HeLa cells and placenta tissue
Procedure: as §1

[14] = target: T14, kinases from mixed HeLa placenta lysates (Homo sapiens, UniProt P49840); settings: kinase GSK3A; 10 μM free compound; HeLa Placenta lysate mix
T14 construct: capturing and identification of kinases from mixed HeLa placenta lysates; endogenous in cells; host or cells: mixed lysate of HeLa cells and placenta tissue
Procedure: as §1

[15] = target: T15, kinases from mixed HeLa placenta lysates (Homo sapiens, UniProt Q13131); settings: kinase AMPKa1; 10 μM free compound; HeLa Placenta lysate mix
T15 construct: capturing and identification of kinases from mixed HeLa placenta lysates; endogenous in cells; host or cells: mixed lysate of HeLa cells and placenta tissue
Procedure: as §1

[16] = target: T16, kinases from mixed HeLa placenta lysates (Homo sapiens, UniProt P19784); settings: kinase CK2a2; 10 μM free compound; HeLa Placenta lysate mix
T16 construct: capturing and identification of kinases from mixed HeLa placenta lysates; endogenous in cells; host or cells: mixed lysate of HeLa cells and placenta tissue
Procedure: as §1

[17] = target: T17, kinases from mixed HeLa placenta lysates (Homo sapiens, UniProt Q12866); settings: kinase MER; 10 μM free compound; HeLa Placenta lysate mix
T17 construct: capturing and identification of kinases from mixed HeLa placenta lysates; endogenous in cells; host or cells: mixed lysate of HeLa cells and placenta tissue
Procedure: as §1

[18] = target: T18, kinases from mixed HeLa placenta lysates (Homo sapiens, UniProt P35916); settings: kinase FLT4; 10 μM free compound; HeLa Placenta lysate mix
T18 construct: capturing and identification of kinases from mixed HeLa placenta lysates; endogenous in cells; host or cells: mixed lysate of HeLa cells and placenta tissue
Procedure: as §1

[19] = target: T19, kinases from mixed HeLa placenta lysates (Homo sapiens, UniProt Q02763); settings: kinase TIE2; 10 μM free compound; HeLa Placenta lysate mix
T19 construct: capturing and identification of kinases from mixed HeLa placenta lysates; endogenous in cells; host or cells: mixed lysate of HeLa cells and placenta tissue
Procedure: as §1

[20] = target: T20, kinases from mixed HeLa placenta lysates (Homo sapiens, UniProt O43353); settings: kinase RIPK2; 10 μM free compound; HeLa Placenta lysate mix
T20 construct: capturing and identification of kinases from mixed HeLa placenta lysates; endogenous in cells; host or cells: mixed lysate of HeLa cells and placenta tissue
Procedure: as §1

[21] = target: T21, kinases from mixed HeLa placenta lysates (Homo sapiens, UniProt P08581); settings: kinase MET; 10 μM free compound; HeLa Placenta lysate mix
T21 construct: capturing and identification of kinases from mixed HeLa placenta lysates; endogenous in cells; host or cells: mixed lysate of HeLa cells and placenta tissue
Procedure: as §1

[22] = target: T22, kinases from mixed HeLa placenta lysates (Homo sapiens, UniProt P07948); settings: kinase LYN; 10 μM free compound; HeLa Placenta lysate mix
T22 construct: capturing and identification of kinases from mixed HeLa placenta lysates; endogenous in cells; host or cells: mixed lysate of HeLa cells and placenta tissue
Procedure: as §1

[23] = target: T23, kinases from mixed HeLa placenta lysates (Homo sapiens, UniProt P29597); settings: kinase TYK2; 10 μM free compound; HeLa Placenta lysate mix
T23 construct: capturing and identification of kinases from mixed HeLa placenta lysates; endogenous in cells; host or cells: mixed lysate of HeLa cells and placenta tissue
Procedure: as §1

[24] = target: T24, kinases from mixed HeLa placenta lysates (Homo sapiens, UniProt Q13233); settings: kinase MAP3K1; 10 μM free compound; HeLa Placenta lysate mix
T24 construct: capturing and identification of kinases from mixed HeLa placenta lysates; endogenous in cells; host or cells: mixed lysate of HeLa cells and placenta tissue
Procedure: as §1

Competition % MPSK1 [1]: 92.1% | Competition % KDR [2]: 92.5% | Competition % SYK [3]: 94.8% | Competition % PIP5K2B [4]: 97.2% | Competition % PHKg2 [5]: 93.4% | Competition % Wee1 [6]: 97.5% | Competition % MLK4 [7]: 85.8% | Competition % DDR1 [8]: 94.1% | Competition % FER [9]: 96.7% | Competition % CDC2 [10]: 94.3% | Competition % MAP3K5 [11]: 94.1% | Competition % FAK [12]: 96% | Competition % GAK [13]: 95.9% | Competition % GSK3A [14]: 94.6% | Competition % AMPKa1 [15]: 95.2% | Competition % CK2a2 [16]: 95.4% | Competition % MER [17]: 96.5% | Competition % FLT4 [18]: 88.2% | Competition % TIE2 [19]: 91.4% | Competition % RIPK2 [20]: 94.4% | Competition % MET [21]: 94.2% | Competition % LYN [22]: 83.1% | Competition % TYK2 [23]: 96.6% | Competition % MAP3K1 [24]: 64.6%
SMILES: CS(=O)(=O)Nc1ccccc1Nc1nc(Nc2cccc(OCCN)c2)ncc1F [CZC25342, N-(2-(2-(3-(2-aminoethoxy)phenylamino)-5-fluoropyrimidin-4-ylamino)phenyl)methanesulfonamide]
